# Measured values as given in patent US20230028880A1, “CD38-BINDING AGENTS AND USES THEREOF” (Biohaven Therapeutics Ltd., priority 2019, published 2023).
# Several values for one entry are separate records, joined by “and”; a condition that tells them apart may be missing. Equal values may be shown once. Where no end group is shown, it is not given here. [ ]: non-standard residue; d: D form. Bip = N[C@@H](Cc1ccc(-c2ccccc2)cc1)C(=O)O; Ahp(2) = CCCCC[C@H](N)C(=O)O
# B1: A R Ahp Y H D G V L Bph A D C (peptide)
# peptide: AR[Ahp(2)]YHDGVL[Bip]ADC
# modifications: not fully specified (N-terminus, bridges); printed as A R Ahp Y H D G V L Bph A D C
# notes: Alanine variant at position 11
# B2: A R A Y H D G V L Bph Ahp D C (peptide)
# peptide: ARAYHDGVL[Bip][Ahp(2)]DC
# modifications: not fully specified (N-terminus, bridges); printed as A R A Y H D G V L Bph Ahp D C
# notes: Alanine variant at position 3
# B3: A R Ahp Y H D G V L A Ahp D C (peptide)
# peptide: AR[Ahp(2)]YHDGVLA[Ahp(2)]DC
# modifications: not fully specified (N-terminus, bridges); printed as A R Ahp Y H D G V L A Ahp D C
# notes: Alanine variant at position 10
# B4: A A Ahp Y H D G V L Bph Ahp D C (peptide)
# peptide: AA[Ahp(2)]YHDGVL[Bip][Ahp(2)]DC
# modifications: not fully specified (N-terminus, bridges); printed as A A Ahp Y H D G V L Bph Ahp D C
# B5: A R Ahp Y H D G V L Bph Ahp A C (peptide)
# peptide: AR[Ahp(2)]YHDGVL[Bip][Ahp(2)]AC
# modifications: not fully specified (N-terminus, bridges); printed as A R Ahp Y H D G V L Bph Ahp A C
# notes: Alanine variant at position 12
# How the values were obtained:
# [1] = test system: Effector cells (ADCC reporter cells) with Daudi cells; assay: ADCC reporter assay: Daudi cells, IVIG and ADCC reporter effector cells (luciferase, RLU); assay type: cell-based; conditions: IVIG; for EC50: ADCC reporter assay; for Luminescence, ADCC reporter assay: 18 h, duplicate columns
# Procedure: Daudi (ATCC CCL-213) cells were resuspended in Opti-MEM (Thermo Fisher Scientific #31985070), counted (Life Technologies Countless II cell counter) and plated (5,000 cells in 25 uL/well; Corning plates: 3917). Compounds w diluted in DMSO (MP 191418) to 1000× the starting concentration used in the assay into a 96 well polypropylene plate (Corning 3357). They were then serially diluted in ½ log increments to generate 8 concentrations in DMSO (assay dependent). These DMSO stocks were then step diluted 1/250 into Opti-MEM. Step diluted compound range was then added into the polypropylene assay plate 25 uL/well. The human antibody solution (Grifols IVIG Fleogogamma #61953-0005-2) was diluted to 40 ug/mL and added 25 uL/well. Effector cells (ADCC reporter cells—Promega kit: G7018) were added 37,500 in 25 uL/well. The assay was then incubated 18 h at 37° C. Following the induction period, the plate was equilibrated to 25° C. followed the addition of the luciferase substrate (75 uL/well, 1 vial in 10 mL of Bio-Glo assay buffer, Promega kit: G7018). The luminescence was measured (Biotek Synergy H1 microplate reader).
# Daudi cells [2] = assay: KILR ADCC killing assay: KILR-transfected Daudi cells with purified NK cells (% dead cells); assay type: cell-based; conditions: for % dead cells, KILR ADCC killing assay: KILR Daudi cells with purified NK cells, duplicate columns
# Description: In some embodiments, CD38-ABT ARMs bind to target cells and antibodies, e.g., human antibodies. In some embodiments, such ternary structures present antibodies to effector cells such as NK cell and bind to, e.g., CD16a receptors. […] Daudi cells were transfected with KILR reporter construct (DiscoverX #97-0002). An attenuated lentivirus was designed to deliver a Moloney Murine Leukemia Virus (MMLV) engineered to drive expression of a housekeeping gene tagged with Enhanced ProLabel (ePL) a beta-Galactosidase (beta-gal) reporter fragment. This construct was designed to remain inside cells. Death leads to the release of the KILR reporter protein into the medium. Detection reagent (DiscoverX #97-0001L) contained the complementing beta-gal reporter fragment enzyme acceptor (EA). The two components combined to generate a chemiluminescent signal.
# Daudi cells [3] = assay: Ternary binding assay: recruitment of PE-labeled human IgG1k to Daudi cells (flow cytometry, MFI); assay type: cell-based; conditions: for MFI, recruitment of PE-labeled human IgG1k to Daudi cells: duplicate columns
# Procedure: Various technologies can be utilized to assess and/or characterize recruitment of antibodies to target cells, e.g., cancer cells. One such assay is a ternary binding assay. An exemplary protocol is described herein. Compounds were diluted in DMSO (MP 191418) to 1000× the starting concentration used in the assay into a 96 well polypropylene plate (Corning 3357). They were then serially diluted in ½ log increments to generate 8-12 concentrations in DMSO (assay dependent). These DMSO stocks were then step diluted 1/100 into PBS (VWR Cat. #20012043). Step diluted compound range was then added into the polypropylene assay plate 1/10 the volume of the assay volume. Daudi (ATCC CCL-213), a non-adherent cell line, were counted and centrifuged and resuspended at a concentration of 100,000 cells per 90 ul in Flow buffer: 1% BSA (American Bio AB01088-00100); 0.5 mM EDTA (VWR 45001-122); PBS (VWR Cat. #20012043) with 11.1 ug/mL human IgG1k Phycoerythrin labeled (SouthernBiotech #0151K-09 PE). The cells were then added into the polypropylene plate with the step diluted compounds and incubated at 37° C. for 30 min. At the end of the incubation, the cells were centrifuged and washed 2× with How buffer containing 0.5% Tween 20 (BP337-500). Samples were analyzed on a BD FacsCelesta. Mean fluorescence was analyzed using Graphpad Prism and curves were fit using log(inhibitor) vs. response—Variable slope (four parameters).
# CD38 = target: T1, CD38 (human, UniProt P28907 43-300, limits assumed); assay: ELISA; larger values represent binding
# T1 construct: also called cluster of differentiation 38; cyclic ADP ribose hydrolase
molecule,measurement,setting,value
CCCCC[C@@H]1NC(=O)[C@H](CCCNC(=N)N)NC(=O)[C@H](C)NC(=O)CSC[C@@H](C(=O)NCCCC(=O)N[C@@H](CC(=O)O)C(=O)N[C@H]2CSSC[C@@H](C(=O)N[C@H](C(N)=O)[C@@H](C)O)NC(=O)[C@H](Cc3c[nH]c4ccccc34)NC(=O)[C@H](C(C)C)NC(=O)[C@H](CC(C)C)NC(=O)[C@H](CCC(=O)O)NC(=O)CNC(=O)[C@H](CC(C)C)NC(=O)[C@H](Cc3c[nH]cn3)NC(=O)[C@H](Cc3c[nH]c4ccccc34)NC(=O)[C@H](C)NC2=O)NC(=O)[C@H](CC(=O)O)NC(=O)[C@H](CCCCC)NC(=O)[C@H](Cc2ccc(-c3ccccc3)cc2)NC(=O)[C@H](CC(C)C)NC(=O)[C@H](C(C)C)NC(=O)CNC(=O)[C@H](CC(=O)O)NC(=O)[C@H](Cc2c[nH]cn2)NC(=O)[C@H](Cc2ccc(O)cc2)NC1=O [I-30],EC50,[1],12 nM
same,"Luminescence, ADCC reporter assay",[1]; compound 1 nM,4174 RLU and 4217 RLU
same,"Luminescence, ADCC reporter assay",[1]; compound 3 nM,4269 RLU and 4452 RLU
same,"Luminescence, ADCC reporter assay",[1]; compound 10 nM,11442 RLU and 11535 RLU
same,"Luminescence, ADCC reporter assay",[1]; compound 30 nM,17189 RLU and 17066 RLU
same,"Luminescence, ADCC reporter assay",[1]; compound 100 nM,20600 RLU and 19749 RLU
same,"Luminescence, ADCC reporter assay",[1]; compound 300 nM,22074 RLU and 21976 RLU
same,"Luminescence, ADCC reporter assay",[1]; compound 1000 nM,22085 RLU and 21589 RLU
same,"Luminescence, ADCC reporter assay",[1]; compound 3000 nM,19456 RLU and 17760 RLU
same,"% dead cells, KILR ADCC killing assay",Daudi cells [2]; compound 1 nM,14.3% and 14.7%
same,"% dead cells, KILR ADCC killing assay",Daudi cells [2]; compound 3 nM,14.7% and 15.7%
same,"% dead cells, KILR ADCC killing assay",Daudi cells [2]; compound 10 nM,14.1%
same,"% dead cells, KILR ADCC killing assay",Daudi cells [2]; compound 100 nM,17.1% and 18.1%
same,"% dead cells, KILR ADCC killing assay",Daudi cells [2]; compound 300 nM,19% and 20.6%
same,"% dead cells, KILR ADCC killing assay",Daudi cells [2]; compound 1000 nM,19.2% and 20%
CCCCC[C@@H]1NC(=O)[C@H](CCCNC(=N)N)NC(=O)[C@H](C)NC(=O)CSC[C@@H](C(=O)NCCOCCOCCC(=O)NCCOCCOCCC(=O)N[C@@H](CC(=O)O)C(=O)N[C@H]2CSSC[C@@H](C(=O)N[C@H](C(=O)O)[C@@H](C)O)NC(=O)[C@H](Cc3c[nH]c4ccccc34)NC(=O)[C@H](C(C)C)NC(=O)[C@H](CC(C)C)NC(=O)[C@H](CCC(=O)O)NC(=O)CNC(=O)[C@H](CC(C)C)NC(=O)[C@H](Cc3c[nH]cn3)NC(=O)[C@H](Cc3c[nH]c4ccccc34)NC(=O)[C@H](C)NC2=O)NC(=O)[C@H](CC(=O)O)NC(=O)[C@H](CCCCC)NC(=O)[C@H](Cc2ccc(-c3ccccc3)cc2)NC(=O)[C@H](CC(C)C)NC(=O)[C@H](C(C)C)NC(=O)CNC(=O)[C@H](CC(=O)O)NC(=O)[C@H](Cc2c[nH]cn2)NC(=O)[C@H](Cc2ccc(O)cc2)NC1=O [I-34],"MFI, recruitment of PE-labeled human IgG1k to Daudi cells",Daudi cells [3]; compound 3 nM,2094 and 1853
same,"MFI, recruitment of PE-labeled human IgG1k to Daudi cells",Daudi cells [3]; compound 10 nM,11368 and 6266
same,"MFI, recruitment of PE-labeled human IgG1k to Daudi cells",Daudi cells [3]; compound 30 nM,15113 and 15626
same,"MFI, recruitment of PE-labeled human IgG1k to Daudi cells",Daudi cells [3]; compound 100 nM,30043 and 19748
same,"MFI, recruitment of PE-labeled human IgG1k to Daudi cells",Daudi cells [3]; compound 300 nM,24939 and 24944
same,"MFI, recruitment of PE-labeled human IgG1k to Daudi cells",Daudi cells [3]; compound 1000 nM,27313 and 25699
same,"MFI, recruitment of PE-labeled human IgG1k to Daudi cells",Daudi cells [3]; compound 3000 nM,19464 and 23695
same,EC50,[1],6.7 nM
same,"Luminescence, ADCC reporter assay",[1]; compound 1 nM,4355 RLU and 4667 RLU
same,"Luminescence, ADCC reporter assay",[1]; compound 3 nM,5459 RLU and 5627 RLU
same,"Luminescence, ADCC reporter assay",[1]; compound 10 nM,13353 RLU and 13815 RLU
same,"Luminescence, ADCC reporter assay",[1]; compound 30 nM,16833 RLU and 17160 RLU
same,"Luminescence, ADCC reporter assay",[1]; compound 100 nM,19999 RLU and 21759 RLU
same,"Luminescence, ADCC reporter assay",[1]; compound 300 nM,19948 RLU and 20759 RLU
same,"Luminescence, ADCC reporter assay",[1]; compound 1000 nM,12953 RLU and 13376 RLU
same,"Luminescence, ADCC reporter assay",[1]; compound 3000 nM,8601 RLU and 9733 RLU
same,"% dead cells, KILR ADCC killing assay",Daudi cells [2]; compound 1 nM,13.9% and 15.8%
same,"% dead cells, KILR ADCC killing assay",Daudi cells [2]; compound 3 nM,13.6% and 13.4%
same,"% dead cells, KILR ADCC killing assay",Daudi cells [2]; compound 10 nM,14.9% and 14.5%
same,"% dead cells, KILR ADCC killing assay",Daudi cells [2]; compound 30 nM,17.8% and 16.4%
same,"% dead cells, KILR ADCC killing assay",Daudi cells [2]; compound 100 nM,19.7% and 16.9%
same,"% dead cells, KILR ADCC killing assay",Daudi cells [2]; compound 300 nM,18.9% and 18.8%
same,"% dead cells, KILR ADCC killing assay",Daudi cells [2]; compound 1000 nM,15.3% and 15.9%
same,"% dead cells, KILR ADCC killing assay",Daudi cells [2]; compound 3000 nM,14.2% and 13.5%
"I-38: ""A mixture of compound 6 ... compound 2 ... DIEA ... to get compound I-38 (Q1 ...) and compound I-38 (Q2 ...)"" (ARXYHDGVLXXDCXXXKXDCAWHLGELVWCT; not fully specified; D-residues; cyclised or stapled)",IC50,"Daudi cells [3]; ternary binding assay, Daudi cells, human IgG1k PE",> 3000 nM
same,EC50,"Daudi cells [2]; KILR ADCC killing assay, Daudi cells with purified NK cells",> 3000 nM
same,"% dead cells, KILR ADCC killing assay",Daudi cells [2]; compound 1 nM,10.4% and 10.9%
same,"% dead cells, KILR ADCC killing assay",Daudi cells [2]; compound 3 nM,10.2% and 10.7%
same,"% dead cells, KILR ADCC killing assay",Daudi cells [2]; compound 30 nM,10.6% and 11.6%
same,"% dead cells, KILR ADCC killing assay",Daudi cells [2]; compound 100 nM,10.9%
same,"% dead cells, KILR ADCC killing assay",Daudi cells [2]; compound 300 nM,10.9% and 11.1%
same,"% dead cells, KILR ADCC killing assay",Daudi cells [2]; compound 1000 nM,11.4% and 11.7%
same,"% dead cells, KILR ADCC killing assay",Daudi cells [2]; compound 3000 nM,10.3% and 10.8%
B1,Binding Assay (ELISA signal),CD38,0.2
B2,Binding Assay (ELISA signal),CD38,0.11
B3,Binding Assay (ELISA signal),CD38,0.09
B4,Binding Assay (ELISA signal),CD38,0.6
B5,Binding Assay (ELISA signal),CD38,1.79
